According to patent publication US7816371B2, “Bicycloheteroaryl compounds as P2X7 modulators and uses thereof” (Renovis, Inc., priority 2006, dated 2010):

Molecular target: T1, P2X7 receptor (Homo sapiens, UniProt Q99572)
T1 construct: host or cells: THP-1 cells differentiated with LPS and IFN-γ
T1 sequence (Q99572 1-595): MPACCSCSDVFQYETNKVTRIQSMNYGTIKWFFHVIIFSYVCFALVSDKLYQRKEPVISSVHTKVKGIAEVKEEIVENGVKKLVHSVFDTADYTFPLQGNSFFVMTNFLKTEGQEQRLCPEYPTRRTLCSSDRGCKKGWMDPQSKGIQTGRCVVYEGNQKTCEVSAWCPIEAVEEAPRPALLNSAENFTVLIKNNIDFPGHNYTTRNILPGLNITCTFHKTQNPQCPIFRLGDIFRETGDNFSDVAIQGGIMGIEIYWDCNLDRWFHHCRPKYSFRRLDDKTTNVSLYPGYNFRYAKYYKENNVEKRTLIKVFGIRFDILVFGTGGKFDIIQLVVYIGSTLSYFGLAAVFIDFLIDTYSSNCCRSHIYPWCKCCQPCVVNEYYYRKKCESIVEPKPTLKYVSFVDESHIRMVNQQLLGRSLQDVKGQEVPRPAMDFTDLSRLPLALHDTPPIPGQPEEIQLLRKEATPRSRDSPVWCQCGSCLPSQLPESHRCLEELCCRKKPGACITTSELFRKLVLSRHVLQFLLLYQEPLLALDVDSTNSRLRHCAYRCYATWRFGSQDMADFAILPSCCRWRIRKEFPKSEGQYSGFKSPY
Assay: IL-1β release assay in differentiated THP-1 cells stimulated with BzATP (Example 9); % inhibition and IC50
Assay type: cell-based
Conditions: THP-1 cells differentiated with LPS and IFN-γ, 30 min pretreatment, BzATP 250 uM, IL-1β by ELISA
Procedure: The cells are then pretreated for 30 minutes with the compound of interest at the appropriate concentration in RPMI media containing 100 IU/mL penicillin, 100 ug/mL streptomycin. […] 30 uL of cell supernatant is then collected and IL-1β levels determined via ELISA (R&D systems Cat. # HSLB50) according to manufacturer's recommendations using the Tecan Safire plate reader. Background adjusted IL-1β levels of drug treated and non-treated cells are used to calculate the percent inhibition.
The compounds set forth in Table 1 were tested for activity in a cellular model as described herein.

SMILES	IC50
NCC(CCl)Cn1ccc2c(NC(=O)Cc3ccc(Cl)c(Cl)c3)cccc2c1=O (centres unmarked) [Compound 259]	208 nM
C[C@H](C(N)=O)n1ccc2c(NC(=O)Cc3ccccc3Cl)cccc2c1=O [Compound 260]	694 nM
CNC(=O)[C@@H](CO)n1ccc2c(NC(=O)C(C)c3ccc(Cl)cc3)cccc2c1=O (some centres unmarked) [Compound 261]	188 nM
C[C@H](C(N)=O)n1ccc2c(NC(=O)[C@H](C)c3ccc(Cl)cc3)cccc2c1=O [Compound 262]	73.1 nM
C[C@H](C(=O)Nc1cccc2c(=O)n([C@H](C)C(N)=O)ccc12)c1ccc(Cl)cc1 [Compound 263]	13.3 nM
C[C@H](C(=O)Nc1cccc2c(=O)n([C@@H](C)C(N)=O)ccc12)c1ccc(Cl)cc1 [Compound 265]	15.2 nM
C[C@@H](C(=O)Nc1cccc2c(=O)n([C@@H](C)C(N)=O)ccc12)c1ccc(Cl)cc1 [Compound 266]	38.7 nM
CC(C(=O)Nc1cccc2c(=O)n([C@H](C)C(N)=O)ccc12)c1ccc(Cl)c(C(F)(F)F)c1 (stereo partly drawn) [Compound 267, (R)-2-{5-[2-(4-Chloro-3-trifluoromethyl-phenyl)-propionylamino]-1-oxo-1H-isoquinolin-2-yl}-propionamide]	3.19 nM
C[C@H](C(=O)Nc1cccc2c(=O)n([C@H](C)C(N)=O)ccc12)c1ccc(Cl)c(Cl)c1 [Compound 268]	3.92 nM
C[C@H](C(N)=O)n1ccc2c(NC(=O)[C@H](C)c3ccc(Cl)c(Cl)c3)cccc2c1=O [Compound 269]	8.97 nM
CNC(=O)[C@@H](CO)n1ccc2c(NC(=O)C(C)c3ccc(Cl)c(Cl)c3)cccc2c1=O (stereo partly drawn) [Compound 270, (R)-2-{5-[2-(3,4-Dichloro-phenyl)-propionylamino]-1-oxo-1H-isoquinolin-2-yl}-3-hydroxy-N-methyl-propionamide]	37.4 nM
CC(C)C[C@H](CO)n1ccc2c(NC(=O)[C@@H](C)c3ccc(Cl)cc3)cccc2c1=O [Compound 271]	60.6 nM
C[C@H](C(N)=O)n1ccc2c(NC(=O)c3cccc4ncccc34)cccc2c1=O [Compound 272]	> 1000 nM
CC(C)[C@H](CO)n1ccc2c(NC(=O)[C@H](C)c3ccc(Cl)cc3)cccc2c1=O [Compound 273, (R)-2-(4-Chloro-phenyl)-N-[(R)-2-(1-hydroxymethyl-2-methyl-propyl)-1-oxo-1,2-dihydro-isoquinolin-5-yl]-propionamide]	3.54 nM
CC(C)C[C@H](CO)n1ccc2c(NC(=O)Cc3ccc(Cl)c(Cl)c3)cccc2c1=O [Compound 275]	19.8 nM
CNC(=O)[C@@H](C(C)C)n1ccc2c(NC(=O)[C@@H](C)c3ccc(Cl)cc3)cccc2c1=O [Compound 276, (R)-2-{5-[(S)-2-(4-Chloro-phenyl)-propionylamino]-1-oxo-1H-isoquinolin-2-yl}-3,N-dimethyl-butyramide]	53.3 nM
CNC(=O)[C@@H](C(C)C)n1ccc2c(NC(=O)[C@H](C)c3ccc(Cl)cc3)cccc2c1=O [Compound 277]	82 nM
C[C@H](C(=O)Nc1cccc2c(=O)n([C@@H](C(N)=O)c3ccccc3)ccc12)c1ccc(Cl)c(Cl)c1 [Compound 278, (S)—N-[2-((R)-Carbamoyl-phenyl-methyl)-1-oxo-1,2-dihydro-isoquinolin-5-yl]-2-(3,4-dichloro-phenyl)-propionamide]	58 nM
C[C@H](C(=O)Nc1cccc2c(=O)n([C@@H](C(N)=O)c3ccccc3)ccc12)c1ccc(Cl)cc1 [Compound 279, (S)—N-[2-((R)-Carbamoyl-phenyl-methyl)-1-oxo-1,2-dihydro-isoquinolin-5-yl]-2-(4-chloro-phenyl)-propionamide]	106 nM
CC(C)C[C@H](CO)n1ccc2c(NC(=O)Cc3ccc(Cl)c(C(F)(F)F)c3)cccc2c1=O [Compound 280]	121 nM
CC(C)[C@H](C(=O)NC1CC1)n1ccc2c(NC(=O)[C@@H](C)c3ccc(Cl)cc3)cccc2c1=O [Compound 281, (R)-2-{5-[(S)-2-(4-Chloro-phenyl)-propionylamino]-1-oxo-1H-isoquinolin-2-yl}-N-cyclopropyl-3-methyl-butyramide]	7.39 nM
CC(C)[C@H](C(=O)NC1CC1)n1ccc2c(NC(=O)[C@H](C)c3ccc(Cl)cc3)cccc2c1=O [Compound 282]	33.8 nM
CC(C)[C@H](C(N)=O)n1ccc2c(NC(=O)[C@@H](C)c3ccc(Cl)cc3)cccc2c1=O [Compound 283]	9.7 nM
CC(C)[C@H](C(N)=O)n1ccc2c(NC(=O)[C@H](C)c3ccc(Cl)cc3)cccc2c1=O [Compound 284, (R)-2-{5-[(R)-2-(4-Chloro-phenyl)-propionylamino]-1-oxo-1H-isoquinolin-2-yl}-3-methyl-butyramide]	6.91 nM
C[C@H](C(N)=O)n1ccc2c(NC(=O)Cc3cccc(C(F)(F)F)c3F)cccc2c1=O [Compound 285]	6.62 nM
C[C@H](C(N)=O)n1ccc2c(NC(=O)Cc3c(F)cccc3C(F)(F)F)cccc2c1=O [Compound 286]	374 nM
C[C@H](C(N)=O)n1ccc2c(NC(=O)Cc3ccc(C#N)cc3)cccc2c1=O [Compound 287]	332 nM

SMILES	IC50
C[C@H](C(N)=O)n1ccc2c(NC(=O)Cc3cccc(C#N)c3)cccc2c1=O [Compound 288]	> 1000 nM
C[C@H](C(N)=O)n1ccc2c(NC(=O)Cc3ccc(-c4ccccc4)cc3)cccc2c1=O [Compound 289]	53 nM
C[C@H](C(N)=O)n1ccc2c(NC(=O)Cc3ccc(Cl)cc3F)cccc2c1=O [Compound 290]	7.63 nM
C[C@H](C(N)=O)n1ccc2c(NC(=O)Cc3ccc(F)cc3Cl)cccc2c1=O [Compound 291]	20.6 nM
C[C@H](C(N)=O)n1ccc2c(NC(=O)Cc3c(F)cccc3F)cccc2c1=O [Compound 292]	> 1000 nM
C[C@H](C(N)=O)n1ccc2c(NC(=O)Cc3ccc(F)cc3F)cccc2c1=O [Compound 293]	44.4 nM
C[C@H](C(N)=O)n1ccc2c(NC(=O)Cc3ccccc3F)cccc2c1=O [Compound 294]	663 nM
C[C@H](C(N)=O)n1ccc2c(NC(=O)Cc3ccc(F)cc3C(F)(F)F)cccc2c1=O [Compound 295]	184 nM
C[C@H](C(N)=O)n1ccc2c(NC(=O)Cc3ccc(C(F)(F)F)cc3F)cccc2c1=O [Compound 296]	17.9 nM
C[C@H](C(N)=O)n1ccc2c(NC(=O)Cc3cccc(C(F)(F)F)c3)cccc2c1=O [Compound 297]	16.6 nM
C[C@H](C(N)=O)n1ccc2c(NC(=O)Cc3ccc(C(F)(F)F)cc3)cccc2c1=O [Compound 298]	7.91 nM
CC(C(=O)Nc1cccc2c(=O)n([C@H](C)C(N)=O)ccc12)c1ccc(F)cc1 (some centres unmarked) [Compound 299]	24.8 nM
C[C@H](C(N)=O)n1ccc2c(NC(=O)Cc3ccc(Cl)c(F)c3)cccc2c1=O [Compound 300]	5.96 nM
C[C@H](C(N)=O)n1ccc2c(NC(=O)Cc3ccc(F)c(Cl)c3)cccc2c1=O [Compound 301]	3.57 nM
Cc1ccc(CC(=O)Nc2cccc3c(=O)n([C@H](C)C(N)=O)ccc23)cc1F [Compound 302]	32.2 nM
C[C@H](C(N)=O)n1ccc2c(NC(=O)Cc3ccc(F)c(F)c3)cccc2c1=O [Compound 303]	15.5 nM
C[C@H](C(N)=O)n1ccc2c(NC(=O)Cc3ccc(F)c(C(F)(F)F)c3)cccc2c1=O [Compound 304]	5.84 nM
C[C@H](C(N)=O)n1ccc2c(NC(=O)Cc3cc(F)c(F)cc3F)cccc2c1=O [Compound 305]	36.3 nM
C[C@H](C(N)=O)n1ccc2c(NC(=O)Cc3ccc(C(F)(F)F)c(F)c3)cccc2c1=O [Compound 306]	5.07 nM
C[C@H](C(N)=O)n1ccc2c(NC(=O)Cc3ccc(F)c(Br)c3)cccc2c1=O [Compound 307]	18.5 nM
C[C@H](C(=O)Nc1cccc2c(=O)n([C@H](C)C(=O)NC3CC3)ccc12)c1ccc(Cl)cc1 [Compound 308, (R)-2-{5-[(S)-2-(4-Chloro-phenyl)-propionylamino]-1-oxo-1H-isoquinolin-2-yl}-N-cyclopropyl-propionamide]	302 nM
C[C@H](C(N)=O)n1ccc2c(NC(=O)Cc3ccccn3)cccc2c1=O [Compound 309]	> 1000 nM
C[C@@H](C(N)=O)n1ccc2c(NC(=O)Cc3ccc(Cl)nc3)cccc2c1=O [Compound 310]	> 1000 nM
C[C@H](C(N)=O)n1ccc2c(NC(=O)Cc3ccc(Cl)nc3)cccc2c1=O [Compound 312]	> 1000 nM
C[C@H](C(N)=O)n1ccc2c(NC(=O)Cc3cccc(OC(F)(F)F)c3)cccc2c1=O [Compound 313]	713 nM
C[C@H](C(=O)Nc1cccc2c(=O)n(C(C(N)=O)c3ccc(Cl)cc3)ccc12)c1ccc(Cl)cc1 (stereo partly drawn) [Compound 315, (S)—N-{2-[Carbamoyl-(4-chloro-phenyl)-methyl]-1-oxo-1,2-dihydro-isoquinolin-5-yl}-2-(4-chloro-phenyl)-propionamide]	221 nM
